Results reported in patent US20010012846A1, “Quinoline-4-carboxamide derivatives as NK-2 and NK-3 receptor antagonists” (priority 1997, published 2001).

What was measured:
[1] = target: T1, human neurokinin-3 receptor (Homo sapiens, UniProt P29371); assay: Binding affinity to human NK-3 receptor expressed in CHO cells (inhibition of [125I]-[Me-Phe7]-NKB or [3H]-Senktide binding); conditions: human neurokinin-3 receptor expressed in CHO cell lines; read-out: Binding affinity, Ki (nM) hNK-3-CHO
T1 construct: expressed in transfected cells; host or cells: CHO
T1 sequence (P29371 1-465): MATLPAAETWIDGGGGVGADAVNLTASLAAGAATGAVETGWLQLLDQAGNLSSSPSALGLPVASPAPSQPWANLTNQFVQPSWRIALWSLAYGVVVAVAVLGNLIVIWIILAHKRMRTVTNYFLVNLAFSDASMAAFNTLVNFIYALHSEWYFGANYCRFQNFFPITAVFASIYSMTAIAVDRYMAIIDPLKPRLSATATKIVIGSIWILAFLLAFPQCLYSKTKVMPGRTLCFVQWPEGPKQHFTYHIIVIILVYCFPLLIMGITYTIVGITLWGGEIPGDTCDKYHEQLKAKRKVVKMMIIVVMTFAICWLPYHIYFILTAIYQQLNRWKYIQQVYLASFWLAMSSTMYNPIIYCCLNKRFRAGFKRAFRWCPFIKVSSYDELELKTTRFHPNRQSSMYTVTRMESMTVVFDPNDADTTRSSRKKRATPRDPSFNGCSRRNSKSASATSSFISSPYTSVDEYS
Method: The activity of the compounds of the present invention, as NK3 ligands, is determined by their ability to inhibit the binding of the radiolabelled NK3 ligands, [^125I]-[Me-Phe^7]-NKB or [^3H]-Senktide, to guinea-pig and human NK3 receptors (Renzetti et al, 1991, Neuropeptide, 18, 104-114; Buell et al, 1992, FEBS, 299(1), 90-95; Chung et al, 1994, Biochem. Biophys. Res. Commun., 198(3), 967-972).
The binding assays utilized allow the determination of the concentration of the individual compound required to reduce by 50% the [^125I]-[Me-Phe^7]-NKB and [^3H]-Senktide specific binding to NK3 receptor in equilibrium conditions (IC50).
Binding assays provide for each compound tested a mean IC50 value of 2-5 separate experiments performed in duplicate or triplicate. […] The NK3-antagonist activity of the compounds of the present invention is determined by their ability to inhibit senktide-induced contraction of the guinea-pig ileum (Maggi et al, 1990, Br. J. Pharmacol., 101, 996-1000) and rabbit isolated iris sphincter muscle (Hall et al., 1991, Eur. J. Pharmacol., 199, 9-14) and human NK3 receptors-mediated Ca^++ mobilization (Mochizuki et al, 1994, J. Biol. Chem., 269, 9651-9658). Guinea-pig and rabbit in-vitro functional assays provide for each compound tested a mean KB value of 3-8 separate experiments, where KB is the concentration of the individual compound required to produce a 2-fold rightward shift in the concentration-response curve of senktide. Human receptor functional assay allows the determination of the concentration of the individual compound required to reduce by 50% (IC50 values) the Ca^++ mobilization induced by the agonist NKB. In this assay, the compounds of the present invention behave as antagonists.

[2] = target: T2, human neurokinin-2 receptor (Homo sapiens, UniProt P21452); assay: Binding affinity to human NK-2 receptor expressed in CHO cells (inhibition of [125I]-NKA or [3H]-NKA binding); conditions: human neurokinin-2 receptor expressed in CHO cell lines; read-out: Binding affinity, Ki (nM) hNK-2-CHO
T2 construct: expressed in transfected cells; host or cells: CHO
T2 sequence (P21452 1-398): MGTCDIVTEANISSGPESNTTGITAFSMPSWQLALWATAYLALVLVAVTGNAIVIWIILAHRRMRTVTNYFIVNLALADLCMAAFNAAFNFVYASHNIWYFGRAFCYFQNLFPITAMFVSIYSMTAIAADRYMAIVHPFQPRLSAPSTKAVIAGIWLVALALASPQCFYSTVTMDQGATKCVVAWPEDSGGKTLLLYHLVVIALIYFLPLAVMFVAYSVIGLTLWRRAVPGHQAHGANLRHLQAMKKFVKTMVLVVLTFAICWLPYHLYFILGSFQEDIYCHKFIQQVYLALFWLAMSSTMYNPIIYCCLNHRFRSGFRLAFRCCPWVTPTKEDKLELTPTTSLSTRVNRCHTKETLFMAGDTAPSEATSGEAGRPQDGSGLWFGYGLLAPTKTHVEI
Method: The activity of the compounds of the present invention, as NK-2 ligands, is determined by their ability to inhibit the binding of the radiolabelled NK-2 ligands, [^125I]-NKA or [^3H]-NKA, to human NK-2 receptors (Aharony et al, 1992, Neuropeptide, 23, 121-130).
The binding assays utilized allow the determination of the concentration of the individual compound required to reduce by 50% the [^125I]-NKA and [^3H]-NKA specific binding to NK2 receptor in equilibrium conditions (IC50).
Binding assays provide for each compound tested a mean IC50 value of 2-5 separate experiments performed in duplicate or triplicate. […] The NK-2-antagonist activity of the compounds of the present invention is determined by their ability to inhibit human NK-2 receptor-mediated Ca^++ mobilization (Mochizuki et al, 1994, J. Biol. Chem., 269, 9651-9658). Human receptor functional assay allows the determination of the concentration of the individual compound required to reduce by 50% (IC50 values) the Ca^++ mobilization induced by the agonist NKA. In this assay, the compounds of the present invention behave as antagonists.

| Ki [1] | melting point | Ki [2] | SMILES |
| --- | --- | --- | --- |
| 3.2 nM | 90 to 95 °C | 68.8 nM | CC[C@H](NC(=O)c1c(CN2CC[C@H](O)C2)c(-c2ccccc2)nc2ccccc12)c1ccccc1 [Example 32, (S)-N-(α-ethylbenzyl)-3-[(3-(S)-hydroxy)pyrrolidin-1-ylmethyl]-2-phenylquinoline-4-carboxamide] |
| 3 nM | 96 to 98 °C | 27.1 nM | CC[C@H](NC(=O)c1c(CCN2CCN(c3ccc(F)cc3)CC2)c(-c2ccccc2)nc2ccccc12)c1ccccc1 [Example 30] |
| 0.8 nM | 158 to 160 °C | 0.9 nM | CC[C@H](NC(=O)c1c(CN2CCN(CCc3ccccc3)CC2)c(-c2ccccc2)nc2ccccc12)c1ccccc1 [Example 37] |

Continued, compound first:

| SMILES | Ki [1] | melting point | Ki [2] |
| --- | --- | --- | --- |
| CC[C@H](NC(=O)c1c(CCCN2CCN(c3cccc(C(F)(F)F)c3)CC2)c(-c2ccccc2)nc2ccccc12)c1ccccc1 [Example 23] | 1.2 nM | 102 to 105 °C | 9.7 nM |
| CC[C@H](NC(=O)c1c(CN2CCC3(CC2)OCCO3)c(-c2ccccc2)nc2ccccc12)c1ccccc1 [Example 9, (S)-N-(α-ethylbenzyl)-3-[(1,4-dioxa-8-azaspiro[4.5]decan-8-yl)methyl]-2-phenylquinoline-4-carboxamide] | 0.8 nM | 170 to 173 °C | 18.2 nM |
